“Also recorded” adds a separate entry of the source.

The values that follow come from patent US10761001B2, “Devices and methods for tension measurements and applications of same” (Vanderbilt University, priority 2016, dated 2020).

Assay [1] deals with engineered cardiac tissue construct (ECTC) from neonatal rat ventricular cells. As to the kind of experiment: I-Wire ECTC elasticity measurement (stretch-stress curve, Young's modulus). The format is cell-based. On the procedure:
(§1) Method step 2. Cell isolation and culturing: Neonatal rat ventricular cells were obtained from 2-day-old neonatal Sprague-Dawley rats using a trypsin digestion protocol with agitation overnight at 4° C. and plating cells for 40 minutes at 37° C. The population of isolated cells is heterogeneous and besides cardiomyocytes includes cardiofibroblasts, endothelial cells, and vascular smooth muscle cells. The presence of the different cell types is important for formation of the extracellular matrix and tissue structure. The isolated cells were mixed with fibrinogen (5 mg/mL, Sigma-Aldrich, St. Louis, Mo., USA)/Matrigel™ (100 μL/mL, BD Biosciences, San Jose, Calif., USA) plus thrombin (15 μL, 100 U/mL, Sigma-Aldrich, St. Louis, Mo., USA), and pipetted in a casting mold (FIG. 21A). Thereafter, cells were kept at 37° C. in a 5% CO2 humidified cell culture incubator for 1 hour. When fibrinogen was polymerized, 2 mL of cell culture media was added per well. The culture medium consisted of DMEM (Gibco Fisher Scientific, Waltham, Mass., USA), 10% horse serum (Gibco Fisher Scientific, Waltham, Mass., USA), 2% chick embryo extract (US Biological Fisher Scientific, Waltham, Mass., USA), 1% penicillin/streptomycin (Gibco Fisher Scientific, Waltham, Mass., USA), 10 μg/mL insulin (Sigma-Aldrich, St. Louis, Mo., USA), 400 μM tranexamic acid (Sigma-Aldrich, St. Louis, Mo., USA), and 33 μg/mL aprotinin (Sigma-Aldrich, St. Louis, Mo., USA). Over time, the preparation condensed to form elongated muscle fibers of 350-400 μm in diameter and 7 mm long. After 13-15 days of culturing, the contractility and stiffness of the ECTC (FIGS. 21B and 21C) could be measured using our microscope-based optical setup (FIG. 3A).
Method step 3. […]
At first, the linear part of the ECTC stretch-force curve was fitted using a linear equation and the amount of change of ECTC length was calculated. […]

Another assay concerns isolated mice CMs. Particulars: after application of blebbistatin; cited from earlier work.
The subject of assay [2] is engineered cardiac tissue construct (ECTC) from neonatal rat ventricular cells. As to the kind of experiment: I-Wire ECTC contractility under β-adrenergic stimulation. The format is cell-based. On the procedure: as §1
Method step 3. Registration system for the contraction recording: To apply tensional force to the ECTC and detect contraction, a flexible PEEK tube of 365 μm in outer diameter and 120 μm bore (Putnam Plastics, Dayville, Conn., USA) and 28 mm length was glued to a Plexiglas cantilever adjuster attached to a cantilever support plate with two embedded position-control magnets (FIG. 3A). The stiffness of the probe was roughly matched to that of the ECTC; one might choose to use either a softer or stiffer probe to study ECTCs with different mechanical properties. The cantilever support plate with cantilever adjuster and flexible probe was mounted with a friction fit to the condenser of the inverted optical microscope (Eclipse Ti, Nikon, Melville, N.Y., USA) equipped with a digital camera system (Zyla sCMOS Camera, Andor Technology, Belfast, Northern Ireland). […]
Method step 4. Registration of action potential and reconstruction of electrical and mechanical restitution: Action potentials were recorded by utilizing floating micropipettes filled with 3-M KCl. […]

As for `Cc1ccc2c(c1)C(=O)C1(O)CCN(c3ccccc3)C1=N2` (centres unmarked) [blebbistatin], the “decrease of ECTC stiffness” value in assay [1] (6 μM blebbistatin) worked out at 23%. Further, the “Young's modulus of the ECTC” value in assay [1] (6 μM blebbistatin, untreated (relaxation) 13.4±2.5 kPa, N=5, P<0.05) stood at 10.3±2.8 kPa. Also, in assay [1] (blebbistatin-treated ECTCs, 6 μM, systolic 4.9, diastolic 15.1 %/mN), the “slope of the fitted straight line of the stretch-stress curve” value is 17.5 %/mN. The “lowering of the diastolic stress” value in the assay with isolated mice CMs is on record as 30%.
For the molecule `CC(C)NCC(O)c1ccc(O)c(O)c1` (centres unmarked) [isoproterenol], the contraction duration result in assay [2] (1 μM isoproterenol (β-adrenergic stimulation)) is reported as “shortening”. Moreover, the contraction velocity entry in assay [2] (1 μM isoproterenol, applied force exceeded 0.233 mN, P<0.05, N=7) is on record as “statistically significant acceleration”. For the same molecule, the developed force result in assay [2] (1 μM isoproterenol, applied transverse forces greater than 0.156 mN, P<0.05, N=7) is reported as “significant increase”. Further, the “force exerted by the ECTC during contraction and relaxation” value in assay [2] (1 μM isoproterenol, separate analysis of systole and diastole) is reported as “significant change occurs only in the phase of relaxation; also recorded: significant effect of the isoproterenol only during the diastolic phase”.
